Measured values from the supplement of paper PMC5579334.
± gives the standard deviation of the averaged measurements.

Key:
HS-PSS [1] = assay: relative IC50 (inflection point of fitted dose-response curve, CellTox-Green cytotoxicity, 72 h; top asymptote may be below 50%); higher = less potent
Outline: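 MPNST cell lines and primary human Schwann cells were incubated 72 h at 37 °C in 384-well plates holding five 10-fold compound dilutions. CellTox-Green was added before seeding at a final 1:1000 dilution and reported fluorescence from DNA released by disrupted cells. Signals were scaled to vehicle and positive-control wells, and cultures failing plate quality control were dropped. Drug sensitivity score and relative IC50 come from four-parameter logistic fits, with IC50 censored at the top concentration.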

HS-PSS [2] = assay: relative IC50 (inflection point of fitted dose-response curve, CellTiter-Glo viability, 72 h; top asymptote may be below 50% inhibition); higher = less potent
Outline: (§1)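 MPNST cell lines and primary human Schwann cells (750–1000 cells per well) went into 384-well plates preprinted with each compound at five concentrations in 10-fold steps. Plates were incubated 72 h at 37 °C, 5% CO2. Viability was read as CellTiter-Glo ATP luminescence, scaled between vehicle and positive-control wells, with duplicates averaged where present. Percent inhibition is at the top concentration; drug sensitivity score and relative IC50 (censored at top concentration) come from four-parameter logistic fits.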

HS-Sch-2 [3] = assay: as above
Outline: as §1

YST-1 [4] = assay: as above
Outline: as §1

HS-PSS [5] = assay: drug sensitivity score (DSS, CellTiter-Glo viability, 72 h) (DSS (dimensionless)); higher = more sensitive; extreme values may be limits of the assay
Outline: as §1

HS-Sch-2 [6] = assay: as above
Outline: as §1

[7] = tested on: HSC1 (primary human Schwann cells); assay: as above
Outline: as §1

[8] = tested on: HSC2 (primary human Schwann cells); assay: as above
Outline: as §1

S1507-2 = assay: as above
Outline: as §1

S462 = assay: as above
Outline: as §1

ST8814 = assay: as above
Outline: as §1

STS26T = assay: as above
Outline: as §1

YST-1 [9] = assay: as above
Outline: as §1

SMILES	relative IC50 (HS-PSS [1])	relative IC50 (HS-PSS [2])	relative IC50 (HS-Sch-2 [3])	relative IC50 (YST-1 [4])	further results
Nc1ncnc2c1c(-c1cccc(OCc3ccccc3)c1)cn2[C@H]1C[C@@H](CN2CCC2)C1 [NVP-AEW541]	2.38 µM	3.02 µM	1.96 µM	0.654 µM	
COc1ccc(-c2ccc3ncc4c(c3c2)n(-c2ccc(N3CCNCC3)c(C(F)(F)F)c2)c(=O)n4C)cn1 [NVP-BGT226]	0.335 µM	0.0404 µM	0.0125 µM	0.0179 µM	
Cc1cc(-c2ncc(CC(=O)Nc3ccc(-c4cnccn4)cn3)cc2C)ccn1 [NVP-LGK974]	> 10 µM	1.97 µM	2.92 µM	> 10 µM	
COc1ccc(C[C@H](NC(=O)[C@H](C)NC(=O)CN2CCOCC2)C(=O)N[C@@H](Cc2ccccc2)C(=O)[C@@]2(C)CO2)cc1 [ONX-0914]	0.307 µM	0.335 µM	0.158 µM	0.309 µM	
Cc1sc2c(c1C)C(c1ccc(Cl)cc1)=N[C@@H](CC(=O)Nc1ccc(O)cc1)c1nnc(C)n1-2 [OTX015]	> 10 µM	0.321 µM	0.223 µM	0.162 µM	
COc1ncc(-c2ccc3nccc(-c4ccnnc4)c3c2)cc1NS(=O)(=O)c1ccc(F)cc1F [Omipalisib]	> 1 µM	0.0352 µM	0.0984 µM	0.00688 µM	
CC(C)c1cc(C(=O)N2Cc3ccc(CN4CCN(C)CC4)cc3C2)c(O)cc1O [Onalespib]	0.0627 µM	0.114 µM	0.037 µM	0.105 µM	
COC[C@H](NC(=O)c1cnc(C)s1)C(=O)N[C@@H](COC)C(=O)N[C@@H](Cc1ccccc1)C(=O)[C@@]1(C)CO1 [Oprozomib]	0.486 µM	0.148 µM	0.0167 µM	0.0721 µM	
CNC(=O)c1ccc2cc([C@@]3(O)CCn4cncc43)ccc2c1 [Orteronel]	> 10 µM	> 10 µM	> 10 µM	> 10 µM	
O=C(O)C(=O)O.[NH-][C@@H]1CCCC[C@H]1[NH-].[Pt+2] [Oxaliplatin]	23.2 µM	7.51 µM	9.67 µM	1.97 µM	
CN1CCN(c2cc(C(=O)Nc3ccc4c(c3)-c3c(c(C(N)=O)nn3-c3ccc(F)cc3)CC4)c(Cl)cn2)CC1 [PHA 408]	3.27 µM	2.4 µM	3.28 µM	3.08 µM	
COc1cc(Br)c(Nc2nc(-c3c(C)nc4ncccn34)cs2)c(Br)c1 [PTC-209]	> 10 µM	1.67 µM	1.41 µM	2.58 µM	
C1=N/C2=N/c3ccc(OCCN4CCCC4)c(c3)COC/C=C/COCc3cccc(c3)C(=C1)N2 [Pacritinib]	2.78 µM	1.18 µM	1.76 µM	1.94 µM	
CCCCCCCCCCCCCCCCCCOP(=O)([O-])OC1CC[N+](C)(C)CC1 [Perifosine]	> 2.5 µM	> 2.5 µM	> 2.5 µM	> 2.5 µM	
CC(C)N(C[C@H]1O[C@@H](n2cnc3c(N)ncnc32)[C@H](O)[C@@H]1O)[C@H]1C[C@@H](CCc2nc3cc(C(C)(C)C)ccc3[nH]2)C1 [Pinometostat]	> 1 µM	> 1 µM	> 1 µM	> 1 µM	
NCCNc1ccc(NCCN)c2c1C(=O)c1ccncc1C2=O [Pixantrone]	> 10 µM	3 µM	3.48 µM	3.3 µM	
Cc1ccc(C(=O)Nc2ccc(CN3CCN(C)CC3)c(C(F)(F)F)c2)cc1C#Cc1cnc2cccnn12 [Ponatinib] (max concentration tested 1000 nM)					drug sensitivity score (HS-PSS [5]): 2.2; drug sensitivity score (HS-Sch-2 [6]): 5.57; drug sensitivity score [7]: 6.62; drug sensitivity score [8]: 6.49; drug sensitivity score (S1507-2): 6.1 ± 0.6; drug sensitivity score (S462): 5.51 ± 0.34; drug sensitivity score (ST8814): 8.31; drug sensitivity score (STS26T): 3.91; drug sensitivity score (YST-1 [9]): 4.76
CCCCc1nc2cc(/C=C/C(=O)NO)ccc2n1CCN(CC)CC [Pracinostat]	1.63 µM	0.728 µM	0.429 µM	0.121 µM	
CCNC(=O)Nc1ccc(-c2nc3c(c(N4CCOC[C@@H]4C)n2)CCN(C2COC2)C3)cc1 [RG-7603]	> 2.5 µM	0.777 µM	0.356 µM	0.192 µM	
Nc1cc(F)ccc1NC(=O)/C=C/c1cnn(C/C=C/c2ccccc2)c1 [RGFP966]	> 10 µM	0.378 µM	1.75 µM	1.57 µM	
C[C@@H]1C[C@H]2O[C@@H]2/C=C\C=C\C(=O)Cc2c(Cl)c(O)cc(O)c2C(=O)O1 [Radicicol]	1.14 µM	0.545 µM	0.353 µM	0.81 µM	
CN(C)Cc1ccc(S(=O)(=O)n2ccc(/C=C/C(=O)NO)c2)cc1 [Resminostat]	3.06 µM	2.18 µM	2.17 µM	0.578 µM	
CN(C)C(=O)c1cc2cnc(Nc3ccc(N4CCNCC4)cn3)nc2n1C1CCCC1 [Ribociclib]	> 10 µM	2.03 µM	1.61 µM	1.53 µM	
COc1cc(OC)c(/C=C/S(=O)(=O)Cc2ccc(OC)c(NCC(=O)O)c2)c(OC)c1 [Rigosertib]	> 10 µM	0.13 µM	0.0922 µM	0.0592 µM	

SMILES	relative IC50 (HS-PSS [1])	relative IC50 (HS-PSS [2])	relative IC50 (HS-Sch-2 [3])	relative IC50 (YST-1 [4])	further results
C=CC(=O)Nc1cccc(Nc2nc(Nc3ccc(N4CCN(C(C)=O)CC4)cc3OC)ncc2C(F)(F)F)c1 [Rociletinib]	2.98 µM	3.1 µM	2.82 µM	1.61 µM	
C/C=C1\NC(=O)[C@H]2CSSCC/C=C/[C@H](CC(=O)N[C@H](C(C)C)C(=O)N2)OC(=O)[C@H](C(C)C)NC1=O [Romidepsin]	0.337 µM	0.3 µM	0.002 µM	0.00075 µM	
COc1ccc(CCc2nc3cc(-c4c(C)noc4C)ccc3n2C[C@H](C)N2CCOCC2)cc1Cl [SGC-CBP30]	> 25 µM	9.71 µM	3.85 µM	3.97 µM	
CN1CCC(CNc2ccc3ncc(-c4cccc(OC(F)(F)F)c4)n3n2)CC1 [SGI-1776]	2.51 µM	2.47 µM	2.37 µM	1.66 µM	
Cn1cc(-c2ccc3nnc(Sc4ccc5ncccc5c4)n3n2)cn1 [SGX-523]	> 5 µM	> 5 µM	> 5 µM	> 5 µM	
CN(CC(=O)N(Cc1ccc(C2CCCCC2)cc1)c1ccc(C(=O)O)cc1)S(=O)(=O)c1c(F)c(F)c(F)c(F)c1F [SH-4-54]	7.28 µM	7.51 µM	5.27 µM	3.26 µM	
CC(C)NC(=O)COc1cccc(-c2nc(Nc3ccc4[nH]ncc4c3)c3ccccc3n2)c1 [SLx-2119]	> 5 µM	1.04 µM	0.653 µM	0.193 µM	
CCc1c2c(nc3ccc(O)cc13)-c1cc3c(c(=O)n1C2)COC(=O)[C@]3(O)CC [SN-38]	0.0297 µM	0.036 µM	0.00922 µM	0.00463 µM	
O=C(/C=C\n1cnc(-c2cc(C(F)(F)F)cc(C(F)(F)F)c2)n1)NNc1cnccn1 [Selinexor]	1.46 µM	0.404 µM	0.211 µM	0.115 µM	
O=C(O)c1ccc2c(c1)nc(Nc1cccc(Cl)c1)c1ccncc12 [Silmitasertib]	> 10 µM	2.58 µM	3.54 µM	2.36 µM	
CCC(C)(C)C(=O)O[C@H]1C[C@@H](C)C=C2C=C[C@H](C)[C@H](CC[C@@H]3C[C@@H](O)CC(=O)O3)[C@H]21 [Simvastatin] (max concentration tested 10000 nM)					drug sensitivity score (HS-PSS [5]): 3.55; drug sensitivity score (HS-Sch-2 [6]): 0; drug sensitivity score [7]: 8.22; drug sensitivity score [8]: 9.94; drug sensitivity score (S1507-2): 0.00035 ± 0.00049; drug sensitivity score (S462): 2.409 ± 0.0062; drug sensitivity score (ST8814): 0.23; drug sensitivity score (STS26T): 0.448; drug sensitivity score (YST-1 [9]): 0
CC(C)(O)CC(=O)NCCn1ccc2ncnc(Nc3ccc(Oc4cccc(C(F)(F)F)c4)c(Cl)c3)c21 [TAK-285]	> 2.5 µM	> 2.5 µM	> 2.5 µM	> 2.5 µM	
O=c1sn(-c2cccc3ccccc23)c(=O)n1Cc1ccccc1 [Tideglusib]	> 3 µM	> 3 µM	> 3 µM	> 3 µM	
Cc1cc(Nc2cc(N3CCN(C)CC3)nc(Sc3ccc(NC(=O)C4CC4)cc3)n2)n[nH]1 [Tozasertib]	> 10 µM	0.315 µM	0.552 µM	0.0421 µM	
NC(=S)N/N=C/c1ncccc1N [Triapine]	3.26 µM	2.25 µM	1.69 µM	3.88 µM	
O=C(O)CSc1cc(NS(=O)(=O)c2ccc(Br)cc2)c2ccccc2c1O [UMI-77]	30.5 µM	26.9 µM	5.66 µM	3.04 µM	
CCCCNc1ncc(C(=O)NCc2ccc(-n3ccnc3)cc2)c(NC2CCC(O)CC2)n1 (configuration not stated) [UNC2881]	> 2.5 µM	0.338 µM	> 2.5 µM	0.345 µM	
CC(C)Nc1cc(-c2c[nH]c(C(=O)N[C@H](CO)c3cccc(Cl)c3)c2)c(Cl)cn1 [Ulixertinib]	> 10 µM	3.53 µM	1.29 µM	1.38 µM	
Oc1ncc(N(CCCl)CCCl)c(O)n1 [Uramustine]	> 10 µM	> 10 µM	> 10 µM	> 10 µM	
CCCC(CCC)C(=O)O [Valproic acid]	> 1000 µM	> 1000 µM	> 1000 µM	306 µM	
C[C@@H]1COC(Nc2ccc3ncnc(Nc4ccc(OCc5nccs5)c(Cl)c4)c3c2)=N1 [Varlitinib]	> 10 µM	0.821 µM	1.64 µM	0.247 µM	
CCn1c(=O)c(-c2cc[nH]n2)cc2c(C)nc(N)nc21 [Voxtalisib]	> 10 µM	2.33 µM	2.18 µM	1.12 µM	
COc1cc2c(Nc3ccc(Cl)c(Cl)c3F)ncnc2cc1OC[C@H]1C[C@@H]2CN(C)C[C@@H]2C1 [XL-647]	> 1 µM	0.406 µM	0.367 µM	0.101 µM	
c1ccc(Cn2c(-c3ccc(OC[C@H](C4CCNCC4)n4c(-c5ccccc5)nc5ccccc54)cc3)nc3ccccc32)cc1 [deltarasin]	2.47 µM	2.47 µM	3.06 µM	3.36 µM	
